{"source": "patent US20220233534A1", "about": "“CERDULATINIB-CONTAINING TOPICAL SKIN PHARMACEUTICAL COMPOSITIONS AND USES THEREOF” (DERMAVANT SCIENCES GMBH, priority 2019, published 2022)", "key": {"[1]": {"test_system": "DNCB-induced atopic dermatitis NC/Nga mouse", "assay": "DNCB-induced atopic dermatitis in the NC/Nga mouse model", "format": "in vivo", "experimental": "Atopic dermatitis was induced by repeated application of DNCB (1-chloro-2,4-dinitrobenzene) to the dorsal skin of the ears/back. […] Lesions were evaluated on days 2, 8, 11, and 14.\nMacroscopic lesion severity scores are depicted in FIG. 7. Macroscopic skin lesion severity was measured on the indicated Study Days by assessing (0-3 scale) the presence of erythema, edema, excoriation/erosion, and dryness scaling on the ears, neck, and dorsal skin of animals.\nSerum IgE levels are depicted in FIG. 8. Serum samples obtained on Study Day 15 were utilized for IgE quantitation. Select cytokine data from the study are depicted in FIG. 9. Skin samples harvested on Day 15 were analyzed by LUMINEX for inflammatory cytokine levels for IL-4, IL-5, IL-13, and IL-31."}, "[2]": {"test_system": "vitiligo mouse model", "assay": "Study DMVT-502-9025 mouse model of vitiligo", "format": "in vivo", "experimental": "The model mimics human vitiligo by inducing epidermal depigmentation with autoreactive CD8+ T-cell accumulation. A schematic of the model is depicted in FIG. 15.\nTen mice were used in the study: three REX3 reporter mice for cytokines CXCL9 and CXCL10 and seven SCF (stem cell factor) mice. The vitiligo study timeline is depicted in FIG. 16. The following assessments were performed during the study:\nBlinded scoring of ears, tail, nose, and ventral feet (0-5 scale)\nEpidermal, dermal, spleen, and lymph node PMEL (premelanosome protein) cell count\nEpidermal/dermal APC (antigen-presenting cell) count\nKeratinocyte Cytokine Expression"}, "[3]": {"details": "60 mg/kg once daily oral, 5 weeks"}, "[4]": {"details": "30 and 60 mg/kg once daily oral, 5 weeks"}}}
{"compound": "CCS(=O)(=O)N1CCN(c2ccc(Nc3ncc(C(N)=O)c(NC4CC4)n3)cc2)CC1", "note": "[DMVT-502, Cerdulatinib]", "values": [{"measurement": "serum IgE levels", "setting": "[1]; topical therapy, Study Day 15", "value": "trends towards reduction"}, {"measurement": "pro-inflammatory cytokine levels in skin (IL-4, IL-5, IL-13, IL-31)", "setting": "[1]; topical treatment, Day 15, LUMINEX", "value": "limited suppression"}, {"measurement": "APCs in the dermal skin compartment and Langerhans cells in the epidermal skin compartment compared with vehicle", "setting": "[2]; [3]", "value": "significantly reduced"}, {"measurement": "CD3+, CD8− T-cell counts in the spleen", "setting": "[2]; [3]", "value": "significantly reduced"}, {"measurement": "PMEL T-cell counts in dermis and blood", "setting": "[2]; [3]", "value": "significantly reduced"}, {"measurement": "host T-cell counts in blood", "setting": "[2]; [3]", "value": "significantly decreased"}, {"measurement": "APC counts in lymph nodes and the spleen compared with vehicle", "setting": "[2]; [4]", "value": "significantly reduced"}, {"measurement": "PMEL T-cell counts in the epidermis and dermis compared with vehicle", "setting": "[2]; [4]", "value": "significantly reduced"}, {"measurement": "host-derived total T-cell counts in the spleen", "setting": "[2]; [4]", "value": "significantly reduced"}, {"measurement": "vitiligo scores compared with vehicle controls", "setting": "[2]; [4]", "value": "significantly decreased"}, {"measurement": "lymph node or spleen PMEL T cells", "setting": "[2]; 30 or 60 mg/kg once daily oral, 5 weeks", "value": "no significant differences"}, {"measurement": "CXCL9, CXCL10, and dual expression in keratinocytes compared with vehicle", "setting": "[2]; SCF/REX3 mice", "value": "trends towards reduced"}, {"measurement": "CXCL9 and CXCL10 expression in lymph node APCs", "setting": "[2]; once daily oral, 5 weeks", "value": "Reduced"}, {"measurement": "total keratinocyte counts between treatment groups", "setting": "[2]; once daily oral, 5 weeks", "value": "No decrease"}]}
